Data on 31 compounds can be found in US8710043B2, “TRPM8 antagonists and their use in treatments” (Amgen Inc., priority 2011, dated 2014).

This assay has as its target T1, human TRPM8 (Homo sapiens, UniProt Q7Z2W7).
T1 construct: expressed in transfected cells; host or cells: Chinese hamster ovary (CHO) cells, T-REx tetracycline-inducible system, co-transfected with aequorin
Nature of the assay: Luminescence readout assay for measuring intracellular calcium, icilin activation. Format: cell-based. The following applies: CHO cells expressing human TRPM8, aequorin luminescence, 1 μM icilin activation; read-out: hTRPM8 IC50. The essentials: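 The read-out was luminescence reporting intracellular calcium, recorded by a CCD-based luminometer. Compounds were preincubated for 2.5 min before agonist challenge with 1 μM icilin. Human TRPM8 was expressed in a stable T-REx CHO line, induced with 0.5 μg/mL tetracycline the day before.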
Background: Calcium assays in cells follow changes in intracellular calcium, usually with a dye or a luminescent sensor.

In general, IC50 refers to the midpoint of a concentration-inhibition curve.

T1 sequence (Q7Z2W7 whole entry): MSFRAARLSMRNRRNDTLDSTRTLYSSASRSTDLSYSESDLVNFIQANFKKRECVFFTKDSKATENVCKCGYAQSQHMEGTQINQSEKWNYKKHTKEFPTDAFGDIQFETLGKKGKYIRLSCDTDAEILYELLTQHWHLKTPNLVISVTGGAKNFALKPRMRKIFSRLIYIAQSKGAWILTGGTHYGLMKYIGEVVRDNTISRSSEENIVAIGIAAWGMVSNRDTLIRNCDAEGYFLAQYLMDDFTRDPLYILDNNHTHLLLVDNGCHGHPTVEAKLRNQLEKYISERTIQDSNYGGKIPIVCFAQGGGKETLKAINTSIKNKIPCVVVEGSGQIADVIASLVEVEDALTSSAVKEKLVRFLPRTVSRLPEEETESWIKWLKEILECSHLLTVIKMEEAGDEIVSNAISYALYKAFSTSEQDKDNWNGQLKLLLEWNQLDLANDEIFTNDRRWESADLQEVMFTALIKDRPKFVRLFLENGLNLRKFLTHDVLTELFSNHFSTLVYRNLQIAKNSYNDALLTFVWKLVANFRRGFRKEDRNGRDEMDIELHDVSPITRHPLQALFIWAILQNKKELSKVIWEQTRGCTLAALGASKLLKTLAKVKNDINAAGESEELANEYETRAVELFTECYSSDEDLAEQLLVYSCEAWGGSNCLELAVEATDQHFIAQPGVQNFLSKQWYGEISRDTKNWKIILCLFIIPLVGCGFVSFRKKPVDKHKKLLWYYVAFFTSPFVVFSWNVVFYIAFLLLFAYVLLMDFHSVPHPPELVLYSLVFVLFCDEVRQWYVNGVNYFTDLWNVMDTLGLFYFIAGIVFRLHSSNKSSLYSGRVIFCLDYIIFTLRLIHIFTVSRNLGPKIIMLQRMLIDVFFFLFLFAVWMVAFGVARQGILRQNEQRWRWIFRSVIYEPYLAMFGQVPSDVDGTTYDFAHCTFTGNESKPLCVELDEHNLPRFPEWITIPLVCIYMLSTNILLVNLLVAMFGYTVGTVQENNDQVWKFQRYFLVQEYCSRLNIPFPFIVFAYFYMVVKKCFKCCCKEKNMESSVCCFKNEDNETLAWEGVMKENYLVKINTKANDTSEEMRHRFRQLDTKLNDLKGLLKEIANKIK

For `COC(=O)c1ccc(C(=O)N[C@@H](c2ccc(OC(F)(F)F)c(F)c2)c2ccccn2)nc1` [Example 406, (S)-methyl 6-(((3-fluoro-4-(trifluoromethoxy)phenyl)(pyridin-2-yl)methyl)carbamoyl)nicotinate], the IC50 worked out at 0.241 µM.
With `O=C1CNc2cc(C(=O)N[C@@H](c3ccc(C(F)(F)F)cc3)c3ncccc3F)ccc2O1` [Example 75, (S)-N-((3-fluoropyridin-2-yl)(4-(trifluoromethyl)phenyl)methyl)-2-oxo-3,4-dihydro-2H-benzo[b][1,4]oxazine-6-carboxamide], the concentration for half-maximal inhibition (IC50) was 0.0391 µM.
For `Cc1cccnc1[C@@H](NC(=O)c1ccc2[nH]c(=O)oc2c1)c1ccc(C(F)(F)F)cc1` [Example 313, (S)-N-((3-methylpyridin-2-yl)(4-(trifluoromethyl)phenyl)methyl)-2-oxo-2,3-dihydrobenzo[d]oxazole-6-carboxamide] the value was 0.0259 µM; for `COc1ccc(C(=O)N[C@@H](c2ccc(C(F)(F)F)cc2)c2ncccc2C(F)(F)F)nc1` [Example 210, (S)-5-methoxy-N-((4-(trifluoromethyl)phenyl)(3-(trifluoromethyl)pyridin-2-yl)methyl)picolinamide], 0.15 µM.
On to `O=C(N[C@@H](c1ccc(F)cc1)c1ncccc1C(F)(F)F)c1ccccc1` [Example 126, (S)-N-((4-fluorophenyl)(3-(trifluoromethyl)pyridin-2-yl)methyl)benzamide], for which the IC50 turned out to be 0.194 µM.
Consider `O=C(N[C@@H](c1ccc(OC(F)(F)F)c(F)c1)c1ncccc1F)c1ccc(O)cn1` [Example 389, (S)-N-((3-fluoro-4-(trifluoromethoxy)phenyl)(3-fluoropyridin-2-yl)methyl)-5-hydroxypicolinamide 2,2,2-trifluoroacetate], for which the half-maximal inhibitory concentration (IC50) was 0.0183 µM.
Next, `Nc1ccc(C(=O)N[C@@H](c2ccc(C(F)(F)F)cc2)c2ncccc2C(F)(F)F)cn1` [Example 134, (S)-6-amino-N-((4-(trifluoromethyl)phenyl)(3-(trifluoromethyl)pyridin-2-yl)methyl)nicotinamide]: 0.031 µM; `O=C(Cc1c[nH]cn1)N[C@@H](c1ccc(C(F)(F)F)cc1)c1ncccc1C(F)(F)F` [Example 158, (S)-2-(1H-imidazol-4-yl)-N-((4-(trifluoromethyl)phenyl)(3-(trifluoromethyl)pyridin-2-yl)methyl)acetamide]: 1.95 µM; `CNS(=O)(=O)c1ccc(C(=O)N[C@@H](c2ccc(C(F)(F)F)cc2)c2ncccc2F)cc1` [Example 74, (S)-N-((3-fluoropyridin-2-yl)(4-(trifluoromethyl)phenyl)methyl)-4-(N-methylsulfamoyl)benzamide]: 0.0853 µM.
Next, `O=C(N[C@@H](c1ccc(C(F)(F)F)cc1)c1ncccc1F)c1n[nH]c2c1CCCC2` [Example 322, (S)-N-((3-fluoropyridin-2-yl)(4-(trifluoromethyl)phenyl)methyl)-4,5,6,7-tetrahydro-1H-indazole-3-carboxamide]: 0.202 µM; `Nc1nc(C(=O)N[C@@H](c2ccc(C(F)(F)F)cc2)c2ncccc2C(F)(F)F)cs1` [Example 136, (S)-2-amino-N-((4-(trifluoromethyl)phenyl)(3-(trifluoromethyl)pyridin-2-yl)methyl)thiazole-4-carboxamide 2,2,2-trifluoroacetate]: 0.121 µM; `CC(=O)NC(C)C(=O)N[C@@H](c1ccc(C(F)(F)F)cc1)c1ncccc1C(F)(F)F` (stereo partly drawn) [Example 162, 2-acetamido-N-((S)-(4-(trifluoromethyl)phenyl)(3-(trifluoromethriyl)pyridin-2-yl)methyl)propanamide]: 4.38 µM.
Next, `O=C(N[C@@H](C#Cc1ccccc1)c1ncccc1C(F)(F)F)c1ccc2cccnc2c1` [Example 261, (S)-N-(3-phenyl-1-(3-(trifluoromethyl)pyridin-2-yl)prop-2-yn-1-yl)quinoline-7-carboxamide]: 0.375 µM; `O=C(N[C@@H](c1ccc(OC(F)(F)F)c(F)c1)c1ncccc1F)c1c[nH]c(=O)c(C(F)(F)F)c1` [Example 402, (S)-N-((3-fluoro-4-(trifluoromethoxy)phenyl)(3-fluoropyridin-2-yl)methyl)-6-oxo-5-(trifluoromethyl)-1,6-dihydropyridine-3-carboxamide]: 0.12 µM.
On to `O=C(N[C@@H](c1ccc(C(F)(F)F)cc1)c1ncccc1C(F)(F)F)c1ccccc1I` [Example 118, (S)-2-iodo-N-((4-(trifluoromethyl)phenyl)(3-(trifluoromethyl)pyridin-2-yl)methyl)benzamide], for which the IC50 amounted to 0.0905 µM.
Next, `Cc1c[nH]c(C(=O)N[C@@H](c2ccc(OC(F)(F)F)c(F)c2)c2ncccc2F)n1` [Example 388, (S)-N-((3-fluoro-4-(trifluoromethoxy)phenyl)(3-fluoropyridin-2-yl)methyl)-4-methyl-1H-imidazole-2-carboxamide 2,2,2-trifluoroacetate]: 2.98 µM.
As to `O=C(N[C@@H](c1ccc(C(F)(F)F)cc1)c1ncccc1C(F)(F)F)c1cccnn1` [Example 31, (S)-N-((4-(trifluoromethyl)phenyl)(3-(trifluoromethyl)pyridin-2-yl)methyl)pyridazine-3-carboxamide], the IC50 worked out at 0.162 µM.
As for `N#Cc1ccccc1C(=O)N[C@@H](c1ccc(C(F)(F)F)cc1)c1ncccc1C(F)(F)F` [Example 197, (S)-2-cyano-N-((4-(trifluoromethyl)phenyl)(3-(trifluoromethyl)pyridin-2-yl)methyl)benzamide], the IC50 worked out at 0.115 µM.
For `O=C(N[C@@H](c1ccc(C(F)(F)F)cc1)c1ncccc1C(F)(F)F)C1CCOCC1` [Example 152, (S)-N-((4-(trifluoromethyl)phenyl)(3-(trifluoromethyl)pyridin-2-yl)methyl)tetrahydro-2H-pyran-4-carboxamide] the value was 0.459 µM; for `O=C(N[C@@H](c1ccc(C(F)(F)F)cc1)c1ncccc1F)c1n[nH]c2c1CCC2` [Example 321, (S)-N-((3-fluoropyridin-2-yl)(4-(trifluoromethyl)phenyl)methyl)-1,4,5,6-tetrahydrocyclopenta[c]pyrazole-3-carboxamide], 0.164 µM.
Take `COn1cc(C(=O)N[C@@H](c2ccc(C(F)(F)F)cc2)c2ncccc2F)ccc1=O` [Example 369, (S)-N-((3-fluoropyridin-2-yl)(4-(trifluoromethyl)phenyl)methyl)-1-methoxy-6-oxo-1,6-dihydropyridine-3-carboxamide]: the IC50 turned out to be 3.71 µM.
As for `O=C(N[C@@H](c1ccc(C(F)(F)F)cc1)c1ncccc1C(F)(F)F)c1cccc(F)c1` [Example 227, (S)-3-fluoro-N-((4-(trifluoromethyl)phenyl)(3-(trifluoromethyl)pyridin-2-yl)methyl)benzamide], the IC50 is 0.0414 µM.
For the compound `Cc1ccnc(C(NC(=O)c2ccc(=O)[nH]c2)c2ccc(OC(F)(F)F)c(F)c2)c1` (stereo not shown) [Example 423, N-((3-fluoro-4-(trifluoromethoxy)phenyl)(4-methylpyridin-2-yl)methyl)-6-oxo-1,6-dihydropyridine-3-carboxamide], the IC50 was found to be 0.137 µM.
On to `O=C(N[C@@H](c1ccc(C(F)(F)F)cc1)c1ncccc1C(F)(F)F)c1cncnc1` [Example 147, (S)-N-((4-(trifluoromethyl)phenyl)(3-(trifluoromethyl)pyridin-2-yl)methyl)pyrimidine-5-carboxamide], for which the IC50 is 0.148 µM.
For `Cc1cc([C@H](NC(=O)c2ccc(=O)n(C)c2)c2ncccc2F)ccc1F` [Example 339, (S)-N-((4-fluoro-3-methylphenyl)(3-fluoropyridin-2-yl)methyl)-1-methyl-6-oxo-1,6-dihydropyridine-3-carboxamide] the value was 0.915 µM; for `O=C(O)c1cncc(C(=O)N[C@@H](c2ccc(C(F)(F)F)cc2)c2ncccc2C(F)(F)F)c1` [Example 226, (S)-5-(((4-(trifluoromethyl)phenyl)(3-(trifluoromethyl)pyridin-2-yl)methyl)carbamoyl)nicotinic acid], 2.31 µM; for `O=C(N[C@@H](c1ccc(C(F)(F)F)cc1)c1ncccc1F)c1ccc(=O)n(CC(F)(F)F)c1` [Example 372, (S)-N-((3-fluoropyridin-2-yl)(4-(trifluoromethyl)phenyl)methyl)-6-oxo-1-(2,2,2-trifluoroethyl)-1,6-dihydropyridine-3-carboxamide], 0.0894 µM.
Next, `O=C(N[C@@H](c1ccc(OC(F)(F)F)c(F)c1)c1ncccc1F)c1ccc(=O)n(CC2(O)CC2)c1` [Example 407, (S)-N-((3-fluoro-4-(trifluoromethoxy)phenyl)(3-fluoropyridin-2-yl)methyl)-1-((1-hydroxycyclopropyl)methyl)-6-oxo-1,6-dihydropyridine-3-carboxamide]: 0.0596 µM; `O=C(N[C@@H](c1ccc(C(F)(F)F)cc1)c1ncccc1C(F)(F)F)c1ccc2c(c1)CNC2=O` [Example 271, (S)-1-Oxo-N-((4-(trifluoromethyl)phenyl)(3-(trifluoromethyl)-pyridin-2-yl)methyl)isoindoline-5-carboxamide]: 0.0089 µM; `C[C@H](O)Cn1cc(C(=O)N[C@@H](c2ccc(OC(F)(F)F)c(F)c2)c2ncccc2F)ccc1=O` [Example 298, N-((S)-(3-fluoro-4-(trifluoromethoxy)phenyl)(3-fluoropyridin-2-yl)methyl)-1-((S)-2-hydroxypropyl)-6-oxo-1,6-dihydropyridine-3-carboxamide]: 0.0361 µM.
Consider `Cc1nccn1CC(=O)N[C@@H](c1ccc(C(F)(F)F)cc1)c1ncccc1C(F)(F)F` [Example 160, (S)-2-(2-methyl-1H-imidazol-1-yl)-N-((4-(trifluoromethyl)phenyl)(3-(trifluoromethyl)pyridin-2-yl)methyl)acetamide], for which the IC50 was found to be 3.32 µM.
